pKi: −log10 of the molar value.
biological target: D(3) dopamine receptor (Homo sapiens, UniProt P35462)
Sequence (P35462 as listed by the source): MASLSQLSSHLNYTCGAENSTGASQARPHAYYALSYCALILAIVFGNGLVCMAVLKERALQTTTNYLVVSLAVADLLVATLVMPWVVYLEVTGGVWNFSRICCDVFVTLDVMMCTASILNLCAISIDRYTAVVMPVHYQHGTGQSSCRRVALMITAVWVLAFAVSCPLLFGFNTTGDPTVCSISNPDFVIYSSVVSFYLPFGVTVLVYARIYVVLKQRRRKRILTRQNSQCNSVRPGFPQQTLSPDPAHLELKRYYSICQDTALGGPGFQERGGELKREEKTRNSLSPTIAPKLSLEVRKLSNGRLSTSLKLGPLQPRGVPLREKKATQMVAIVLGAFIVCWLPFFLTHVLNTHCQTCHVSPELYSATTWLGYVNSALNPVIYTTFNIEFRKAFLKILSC

First: CCCN(CCC)C1CCc2cc(O)c(O)cc2C1 (racemic) [CAS_62421-17-4]
Second: Cc1cc2c(cc1C)CC(N)CC2 (configuration not stated) [ADTN DIMETHYL 5,6]
The pKi of the first is 1.40 log units higher: 9.17 for the first, 7.77 for the second.

Compared with `COc1ccc2c(c1O)-c1c3c(cc4c1[C@H](C2)N(C)CC4)OCO3` [(S)-11-methoxy-7-methyl-6,7,7a,8-tetrahydro-5H-benzo[g][1,3]dioxolo[4',5':4,5]benzo[1,2,3-de]quinolin-12-ol], `CCCN1CCc2cc(F)cc3c2C1Cc1ccc(O)c(O)c1-3` (configuration not stated) [CAS_18426-20-5] is 4.40 log units higher in pKi: 5.28 for the first, 9.68 for the second. The second binds more tightly here.

Going from `CC(C)C[C@H]1C(=O)N2CCC[C@H]2[C@]2(O)O[C@](NC(=O)[C@@H]3C=C4c5cccc6[nH]c(Br)c(c56)C[C@H]4N(C)C3)(C(C)C)C(=O)N12` [Bromocriptine+ (GTP+)] to `NC1CCc2cc(OC(=O)c3ccccc3)c(OC(=O)c3ccccc3)cc2C1` (configuration not stated) [CAS_129816], the pKi falls from 8.68 to 6.80 (1.88 log units). The first binds more tightly here.

With `CCCN(CCC)C1C=Cc2c(OC)cccc2C1C` (configuration not stated) [CAS_5311190] the pKi was 8.31.
